This is an account of results in patent publication US5010095A, “N-(W-substituted alkyl)-'-(imidazol-4-yl)alkyl)guanidine” (Cedona Pharmaceuticals B.V., priority 1986, dated 1991).

One may read the EC50 as the concentration at which the effect is half-maximal. Low readings indicate an effect from little substance, high ones a need for much substance.

“Also recorded” adds a separate entry of the source. Like-named read-outs stand apart in the source and are kept apart here.

Assay [1] deals with T1, histamine H1 (guinea-pig ileum) (Cavia porcellus, UniProt P31389).
T1 construct: from tissue; host or cells: guinea-pig ileum (isolated organ)
T1 sequence (P31389 whole entry): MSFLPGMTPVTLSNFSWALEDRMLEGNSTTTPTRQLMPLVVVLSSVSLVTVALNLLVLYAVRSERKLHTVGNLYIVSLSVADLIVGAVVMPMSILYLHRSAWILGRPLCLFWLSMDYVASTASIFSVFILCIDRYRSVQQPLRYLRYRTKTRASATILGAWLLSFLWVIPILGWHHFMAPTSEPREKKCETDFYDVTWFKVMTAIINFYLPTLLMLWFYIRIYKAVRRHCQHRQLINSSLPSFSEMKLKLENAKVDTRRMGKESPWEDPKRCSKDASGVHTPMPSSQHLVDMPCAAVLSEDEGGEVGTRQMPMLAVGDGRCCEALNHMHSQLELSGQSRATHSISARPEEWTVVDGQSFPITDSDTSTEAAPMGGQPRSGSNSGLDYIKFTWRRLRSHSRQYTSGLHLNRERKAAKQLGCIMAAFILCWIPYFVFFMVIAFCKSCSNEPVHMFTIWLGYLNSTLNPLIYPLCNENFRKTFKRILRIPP
Briefly: Histamine H1-activity, guinea-pig ileum. The text has this:
(§1) The values for the H1 -activity given are the mean of at least two experiments in quadruplicate, while the values for the H2 -activity result from at least two experiments in duplicate.

Assay [2] concerns the target T2, histamine H2 (guinea-pig right atrium) (Cavia porcellus, UniProt P47747).
T2 construct: from tissue; host or cells: guinea-pig right atrium (isolated organ)
Briefly: Histamine H2-activity, guinea-pig right atrium.
Excerpt: as §1
(§2) Guinea-pig right atrium H2
(§3) Ther., 19, 545-550 (1984).

In assay [3] the target is T3, histamine H2 (guinea-pig gastric fundus) (Cavia porcellus, UniProt P47747).
T3 construct: acid secretion of the isolated gastric fundus of the guinea-pig; from tissue; host or cells: guinea-pig gastric fundus (isolated organ)
T3 sequence (P47747 whole entry): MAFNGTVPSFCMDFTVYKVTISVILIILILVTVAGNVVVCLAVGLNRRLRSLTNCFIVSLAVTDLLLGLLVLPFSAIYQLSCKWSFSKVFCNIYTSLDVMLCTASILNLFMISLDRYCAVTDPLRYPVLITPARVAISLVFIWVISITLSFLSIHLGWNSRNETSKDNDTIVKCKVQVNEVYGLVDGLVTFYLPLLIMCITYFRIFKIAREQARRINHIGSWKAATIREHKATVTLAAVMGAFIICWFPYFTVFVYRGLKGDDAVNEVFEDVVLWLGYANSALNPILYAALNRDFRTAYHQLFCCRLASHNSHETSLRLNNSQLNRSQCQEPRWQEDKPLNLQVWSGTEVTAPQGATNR
Briefly: Histamine H2-activity, acid secretion of the isolated gastric fundus of the guinea-pig.
Excerpt: as §1
(§4) Guinea-pig gastric acid secretion (H2)

For a further assay, the target named is T4, histamine H2 (Cavia porcellus, UniProt P47747).
T4 construct: functional chronotropy and acid secretion
T4 sequence (P47747 whole entry): as above
Briefly: Histamine H2-activity, overall discussion (atrium/gastric fundus). Also on record: species or system guinea-pig. Particulars: atrium and fundus; structure-activity discussion.
Excerpt: as §1, §2, §3, §4

In another assay the target is T5, histamine H1 (Cavia porcellus, UniProt P31389).
T5 construct: functional contraction
T5 sequence (P31389 whole entry): as the sequence (P31389 whole entry) above
The experiment in a line: Histamine H1-activity, overall discussion (ileum/trachea). Particulars: structure-activity discussion. Also on record: species or system guinea-pig. The method, then: The results of pharmacological tests with said new compounds are summarized in Table A (H1 -activity) and Table B (H2 -activity). The values for the H1 -activity given are the mean of at least two experiments in quadruplicate, while the values for the H2 -activity result from at least two experiments in duplicate.
(§5) Male guinea-pigs (350-500 g) were killed by a blow on the head and the trachea removed. Single segments were cut from the trachea, loaded with 0.4 g and placed in an organ bath (35° C.) containing 120 mM NaCl, 6 mM KCl, 1 mM MgSO4, 2.5 mM CaCl2, 1 mM NaH2 PO4, […] and 6 mM glucose. The organ bath was gassed with oxygen containing 5% CO2. PD2, intrinsic acitivity and antagonistic activity of the test compounds were determined from isotonically recorded, cumulative dose-response curves.

Assay [4] addresses T6, histamine H1 (guinea-pig trachea) (Cavia porcellus, UniProt P31389).
T6 construct: Single segments were cut from the trachea; from tissue; host or cells: guinea-pig trachea (isolated segments)
Briefly: Histamine H1-activity, guinea-pig trachea. Particulars: for Kb: ± 0,2, mean of at least two experiments in quadruplicate. The method, then:
as §1, §5

The mark [5] stands for this setting: guinea-pig ileum, ±0,2, mean of at least two experiments in quadruplicate.
Where [6] appears, read: guinea-pig right atrium, ±0,1, at least two experiments in duplicate.
Where [7] appears, read: read-out: Histamine H2-activity, α (intrinsic activity), guinea-pig right atrium, at least two experiments in duplicate.
[8] abbreviates: guinea-pig gastric fundus, ±0,2, at least two experiments in duplicate.
Where [9] appears, read: read-out: Histamine H2-activity, α (intrinsic activity), guinea-pig gastric fundus, at least two experiments in duplicate.
[10] abbreviates: guinea pig, read-out: Histamine H2-activity, atrium, α (intrinsic activity).
The mark [11] stands for this setting: guinea pig, read-out: Histamine H2-activity, gastric fundus, α (intrinsic activity).
[12] abbreviates: gastric fundus, versus compound I.

T2 sequence (P47747 whole entry): as the sequence (P47747 whole entry) above
T6 sequence (P31389 whole entry): as the sequence (P31389 whole entry) above

`N=C(NCCCc1c[nH]cn1)NCCSC(c1ccccc1)c1ccccc1` [Compound I, N-[2-(diphenylmethylthio)ethyl]-N'-[3-(imidazol-4-yl)propyl] guanidine] showed a Kb in assay [1] (setting [5]) of 316 nM. In addition, in assay [2] (guinea-pig right atrium), the “H2-activity on the atrium, comparison in words” value (“H2-activity on the atrium” for short) is recorded as “most potent compounds of this series on the guinea-pig right atrium”. Besides, the EC50 in assay [2] (setting [6]) is 158 nM; in assay [3] (setting [8]) it was 794 nM. The Emax in assay [2] (setting [7]) and in assay [3] (setting [9]) was 100% in each case. Besides, in assay [3] (fundus, extra phenyl group in compound XII), the “decrease in H2-agonism, fundus, versus compound XII” value worked out at 32 fold.

For the compound `N=C(NCCCc1c[nH]cn1)NCCC(c1ccccc1)c1ccccc1` [Compound IX, N-(3.3-diphenylpropyl)-N'-[3-(imidazol-4-yl)propyl]guanidine], the “H2-activity, comparison in words” value on histamine H2 was “Analogous results”. The same compound gave a Kb in assay [1] (setting [5]) of 501 nM. Besides, the “H2-activity on the atrium” value in assay [2] (guinea-pig right atrium) is “remarkable high potency on the guinea-pig right atrium; also recorded: almost as potent as impromidine on the atrium; also recorded: most potent compounds of this series on the guinea-pig right atrium”. The concentration for a half-maximal effect (EC50) in assay [2] (setting [6]) was 20 nM. Further, the Emax in assay [2] (setting [7]) amounted to 100%. For the same compound, the “H1-activity, comparison in words” value on histamine H1 is “Analogous results; also recorded: almost as potent H1 -antagonists as compound I”.

For `N=C(NCCCc1c[nH]cn1)NCCSC(c1ccccc1)c1ccc(F)cc1` (stereo not drawn) [Compound VI, N-[2-(α-phenyl-4-fluorobenzylthio)ethyl]-N'-[3-(imidazol-4-yl)propyl]guanidine], the Kb was 158 nM in assay [4] (guinea-pig trachea) and 251 nM in assay [1] (setting [5]). Also, the “H2-activity, comparison in words” value at histamine H2 is “strong decrease in H2 -activity”. For the same compound, the values for the EC50 in assay [2] (setting [6]) and in assay [3] (setting [8]) were 1260 nM and 3160 nM, respectively. Further, the Emax was 80% in assay [2] (setting [7]) and 40% in assay [3] (setting [9]). Besides, the “H1-activity, comparison in words” value on histamine H1 was “only little or no effect at all on the H1 -antagonism”.

In the case of `Cc1ccccc1C(SCCNC(=N)NCCCc1c[nH]cn1)c1ccccn1` (stereo not drawn) [Compound VII, N-[3-(imidazol-4-yl)propyl]-N'-(2-[2-methyl-alpha-(2-pyridyl)benzylthio]ethyl)guanidine], the Kb in assay [4] (guinea-pig trachea) is 1000 nM; in assay [1] (setting [5]), 398 nM. Also, the “H2-activity, comparison in words” value at histamine H2 is “almost as potent H2 -antagonist as the para methyl and fluoro analogues”. Besides, in assay [2] (setting [6]), the half-maximal effective concentration (EC50) was 1260 nM. Besides, the Emax in assay [2] (setting [7]) was 80%. At histamine H1, the “H1-activity, comparison in words” value was “almost as potent H1 -antagonists as compound I”.

In the case of `Cc1ccc(C(SCCNC(=N)NCCc2c[nH]cn2)c2ccccc2)cc1` (stereo not drawn) [Compound V], at histamine H2, the “H2-activity, comparison in words” value is “Analogous results; also recorded: strong decrease in H2 -activity”. This compound gave a Kb in assay [1] (setting [5]) of 251 nM. For the same compound, the EC50 in assay [2] (setting [6]) and in assay [3] (setting [8]) was 100000 nM in each case. Besides, the Emax in assay [2] (setting [7]) and in assay [3] (setting [9]) was 0% throughout. Besides, the “H1-activity, comparison in words” value at histamine H1 was “Analogous results; also recorded: only little or no effect at all on the H1 -antagonism”.

For `N=C(NCCCc1c[nH]cn1)NCCN(Cc1ccccc1)c1ccccc1` [Compound XI, N-[2-(N'-benzyl-N'-phenylamino)ethyl]-N"-[3-(imidazol-4-yl)propyl]guanidine], the Kb in assay [4] (guinea-pig trachea) is 15.8 nM; in assay [1] (setting [5]), 25.1 nM. In addition, the “potency relative to histamine on the atrium, in words” value in assay [2] (atrium) is on record as “about twice as potent as histamine on the atrium”. Further, in assay [2] (atrium, % of the activity of impromidine), the “activity relative to impromidine, atrium” value is on record as “about 4%”. The 50% effective concentration (EC50) in assay [2] (setting [6]) was 398 nM; in assay [3] (setting [8]), 316 nM. Further, the Emax in assay [2] (setting [7]) was 100%; in assay [3] (setting [9]) it was 70%. Further, on histamine H1, the “H1-activity, comparison in words” value is given as “slightly more potent H1 -antagonist than the oxygen analogue compound II; also recorded: most potent H1 -antagonists of this series of impromidine analogues”. Moreover, in assay [3] (gastric fundus, % of the activity of impromidine), the “activity relative to impromidine, gastric fundus” value was “about 1%”. The “activity relative to histamine, gastric fundus” value in assay [3] (gastric fundus, times the activity of histamine) amounted to 10 times.

As to `N=C(NCC=C(c1ccccc1)c1ccccc1)NCCCc1c[nH]cn1` [Compound X], the Kb in assay [4] (guinea-pig trachea) is 631 nM; in assay [1] (setting [5]), 200 nM. Moreover, the “decrease in H2-activity, atrium, on introduction of a double bond” value in assay [2] (atrium, introduction of a double bond (saturated analogue: IX)) is reported as 4 fold. Besides, in assay [2] (guinea-pig right atrium), the “H2-activity on the atrium” value is on record as “most potent compounds of this series on the guinea-pig right atrium”. Moreover, the EC50 was 100 nM in assay [2] (setting [6]) and 2510 nM in assay [3] (setting [8]). Moreover, the Emax in assay [2] (setting [7]) worked out at 100%; in assay [3] (setting [9]), 90%. For the same compound, the “H1-activity, comparison in words” value at histamine H1 is reported as “almost as potent H1 -antagonists as compound I”.

As for `NCCc1c[nH]cn1` [Histamine, reference compound], the Emax in assay [2] (setting [10]) and in assay [3] (setting [11]) was 100% in each case.

For the compound `N=C(NCCSC(c1ccccc1)c1ccccc1)NCCc1c[nH]cn1` [II, N-[2-(diphenylmethylthio)ethyl]-N'-[2-imidazol-4-yl)ethyl guanidine], the “H2-activity, comparison in words” value at histamine H2 was “marked decrease in H2 -activity, both on the atrium and on the fundus”. Besides, the Kb in assay [1] was 398 nM. In addition, the half-maximal effective concentration (EC50) in assay [2] was 15800 nM; in assay [3], 12600 nM. The Emax amounted to 80% in assay [2] (setting [10]) and 50% in assay [3] (setting [11]). Also, the “H1-activity, comparison in words” value on histamine H1 is on record as “no effect on the H1 -activity”.

`N=C(NCCCc1c[nH]cn1)NCCOC(c1ccccc1)c1ccccc1` [III, N-[2-(diphenylmethoxy)ethyl]-N'-[3-(imidazol-4-yl)propyl] guanidine]: in assay [4] (guinea-pig trachea, versus sulphur starting compound (I)), the “H1 potency relative to the starting compound, trachea” value amounted to 25 times. For the same compound, the results for the Kb in assay [4] (guinea-pig trachea) and in assay [1] (setting [5]) were 25.1 nM and 31.6 nM, respectively. In addition, the “H1 potency relative to the starting compound, ileum” value in assay [1] (guinea-pig ileum, versus sulphur starting compound (I)) was “ten times as potent as the starting compound”. Also, the “decrease in H2-agonism, atrium, versus compound I” value in assay [2] (atrium, sulphur of compound I replaced by oxygen) is 20 fold. The EC50 in assay [2] (setting [6]) was 3160 nM; in assay [3] (setting [8]), 1580 nM. Besides, the Emax was determined as 90% in assay [2] (setting [7]) and 40% in assay [3] (setting [9]). Besides, on histamine H1, the “H1-activity, comparison in words” value is recorded as “most potent H1 -antagonists of this series of impromidine analogues”. The “change in intrinsic activity on the gastric fundus, in words” value in assay [3] (setting [12]) was “remarkable decrease in intrinsic activity”. Further, the “change in pD2 on the gastric fundus, in words” value in assay [3] (setting [12]) was “less pronounced”.

Consider `Cc1ccc(C(SCCNC(=N)NCCCc2c[nH]cn2)c2ccccc2)cc1` (stereo not drawn) [IV, N-[3-(imidazol-4-yl)propyl]-N'-2-[α-phenyl-4-methylbenzylthio]ethyl guanidine], for which, at histamine H2, the “H2-activity, comparison in words” value is recorded as “strong decrease in H2 -activity”. The compound also showed a Kb in assay [1] (setting [5]) of 398 nM. In addition, a half-maximal effect in assay [2] (setting [6]) (EC50) was put at 1260 nM. In addition, the Emax in assay [2] (setting [7]) worked out at 80%. In addition, the “H1-activity, comparison in words” value at histamine H1 was “only little or no effect at all on the H1 -antagonism”.

Take `N=C(NCCc1c[nH]cn1)NCCC(c1ccccc1)c1ccccc1` [VIII, N-(3.3-diphenylpropyl)-N'-[2-(imidazol-4-yl)ethyl] guanidine]: the Kb in assay [1] (setting [5]) was 631 nM. Besides, the “H2-activity on the atrium” value in assay [2] (guinea-pig right atrium) was “remarkable high potency on the guinea-pig right atrium”. Besides, the values for the concentration for a half-maximal effect (EC50) in assay [2] (setting [6]) and in assay [3] (setting [8]) were 2510 nM and 10000 nM, respectively. Further, the Emax in assay [2] (setting [7]) came to 90%; in assay [3] (setting [9]), 0%. At histamine H1, the “H1-activity, comparison in words” value is listed as “almost as potent H1 -antagonists as compound I”.

Consider `NC(=NCCCc1c[nH]cn1)NCCSCc1ccccc1` [XII, reference compound], for which, in assay [1] (setting [5]), the Kb was 3160 nM. In addition, the “decrease in H2-activity, atrium, versus impromidine” value in assay [2] (guinea-pig atrium, 5-methylimidazole of impromidine replaced by phenyl) is 4 fold. In addition, the EC50 in assay [2] (setting [6]) was 63.1 nM; in assay [3] (setting [8]), 25.1 nM. Moreover, the Emax in assay [2] (setting [7]) and in assay [3] (setting [9]) was 100% in each case. Besides, at histamine H1, the “H1-activity, comparison in words” value was “no change in H1 -activity”. The “decrease in H2-activity, gastric fundus, versus impromidine” value in assay [3] (gastric fundus, 5-methylimidazole of impromidine replaced by phenyl) turned out to be 8 fold.

Consider `CN(C)CCCSC(=N)N` [dimaprit, reference compound], for which the “effect on resting state and histamine induced contractions of the trachea” value in assay [4] (up to 10^-3 M) is “neither effect on the resting state of the organ nor on the histamine induced contractions”.
